# Assays:
# [1] = tested on: Fusarium sambucinum; assay: In vitro assay of vaporized pyrimethanil to inhibit pathogenic fungal growth (agar plates); format: cell-based; conditions: F. sambucinum, 3 days at 23° C.
# Method: (§1) An in vitro assay was used to evaluate the ability of pyrimethanil to vaporize in order to control the infection of various pathogenic microorganisms when applied to the plants and plant parts. For in vitro experiments, a 12-well microtiter plate, 6-well, or a 10-cm Petri plates each containing 7.5 ml, 16.5 or 22 ml volumes, respectively, of half strength Potato Dextrose Agar (PDA) were prepared. Each well or plate was inoculated with 1 microliter (μL) of 1×10^5 spores/ml of the appropriate pathogenic spore suspension (e.g., Botrytis cinerea, Penicillium expansum, Glomerella cingulata, Penicillium digitatum, Aspergillus flavus, Colletotrichum acutatum, Fusarium sambucinum, and Geotrichum candidum) by spotting the pathogen on the center of the agar well or plate. The inoculated microtiter or Petri plate was then sealed with a breathable film. One set of triplicate plates for each pathogen was placed inside the bottom of an air-tight 36-L desiccator chamber and closed with secure clamps.
# (§2) Evaporation of the acetone left behind solid crystals of pyrimethanil.
# (§3) The tube of the device was attached to a port on the side of the chamber that allowed airflow of the pyrimethanil vapor into the chamber. The chamber was at room temperature during administration of the pyrimethanil. The chambers were then incubated for three (3) days at 23° C. After incubation, post-treatment growth inhibition of each in vitro pathogen was measured on the inoculated plates and compared to control samples.
# [2] = tested on: Aspergillus flavus; assay: as above; format: cell-based; conditions: A. flavus, 3 days at 23° C.
# Method: as §1, §2, §3
# [3] = tested on: Colletotrichum acutatum; assay: as above; format: cell-based; conditions: C. acutatum, 3 days at 23° C.
# Method: as §1, §2, §3
# [4] = tested on: Botrytis cinerea; assay: as above; format: cell-based; conditions: B. cinerea, 3 days at 23° C.
# Method: as §1, §2, §3
# [5] = tested on: Glomerella cingulata; assay: as above; format: cell-based; conditions: G. cingulata, 3 days at 23° C.
# Method: as §1, §2, §3
# [6] = tested on: Penicillium digitatum; assay: as above; format: cell-based; conditions: P. digitatum, 3 days at 23° C.
# Method: as §1, §2, §3
# [7] = tested on: Penicillium expansum; assay: as above; format: cell-based; conditions: P. expansum, 3 days at 23° C.
# Method: as §1, §2, §3
# [8] = tested on: Geotrichum candidum; assay: as above; format: cell-based; conditions: G. candidum, 3 days at 23° C.
# Method: as §1, §2, §3
# [9] = tested on: Penicillium expansum; assay: Fogging versus vaporizing treatment of apples, browning of top and bottom wounds; format: in vivo; conditions: 2.66 g in tunnel, 72 hours at 21° C., evaluated 4 days after removal, FIG. 23
# Method: An in vivo assay was used to evaluate the ability of vaporized pyrimethanil to control pathogenic infection of apples by Penicillium expansum as compared to fogging methods of apple treatment. Vaporized treatments of apples were performed as previous described in Examples 1-6, with the exception of using a 1 m wide×1 m high×8 m deep tunnel (FIG. 11). A 2.66 g amount of pyrimethanil was either fogged or vaporized into the tunnel. Fruits were exposed to the treatment for 72 hours at 21° C., and then removed from the tunnel and evaluated 4 days after removal in order to observe and/or determine the area of browning wounds at the top and bottom of the fruit (see FIG. 23).
# [10] = tested on: Botrytis cinerea; assay: In vivo assay of vaporized pyrimethanil to inhibit Botrytis cinerea in strawberries; conditions: for Gray Mold Severity (0-4): scale 0 no disease to 4 exceptionally high
# Method: Eight strawberries (per repetition, in triplicate) were placed in an industry standard clamshell with the stem facing down. […] Clamshells were then placed at the bottom of a 36-L acrylic desiccator chamber in triplicate.
# An appropriate amount of pyrimethanil to achieve a final headspace concentration of 1 mg/L, 0.3 mg/L, 0.1 mg/L, or 0.03 mg/L was dissolved in acetone and 100 μL of the solution was pipetted into a small glass tube. This tube was then placed inside a preheated vaporization device (0.5″ OD by 6″ long thermostatically heated copper tube mounted to a 0.5 L/min low flow fan) set at 60° C. for 1 minute to allow the acetone to evaporate, leaving behind the solid crystals of pyrimethanil.
# Pyrimethanil was then introduced into the cabinets of the chamber through the bulkhead port by using the vaporization device as described in Example 1 set at 180° C. The chambers were then incubated at 21° C. for three (3) days. After incubation, fruits were evaluated daily for an additional 3 days at 21° C. Fruits were evaluated in order to observe percentage of disease incidence (%) and severity of disease. Disease severity was rated on a scale ranging from 0 to 4, where “0” indicated no disease severity, “1” indicated minimal disease severity, “2” indicated medium disease severity, “3” indicated high disease severity, and “4” indicated exceptionally high disease severity.
# [11] = tested on: Penicillium expansum; assay: In vivo assay of vaporized pyrimethanil to inhibit Penicillium expansum in apples
# Method: An in vivo assay was used to evaluate the ability of vaporized pyrimethanil to control pathogenic infection of apples by Penicillium expansum. […] Each wound was then inoculated with 30 μL of 1×10^6 spores/mL suspension of P. expansum.
# Fruits were evaluated in order to observe disease incidence (i.e., browning) and fungal sporulation diameter (both measured in millimeters, mm).
# [12] = 0.03 mg/L, Day 0 (after 3 days at 21° C.)
# [13] = 0.03 mg/L, Day 1 (after 3 days at 21° C.)
# [14] = 0.03 mg/L, Day 2 (after 3 days at 21° C.)
# [15] = 0.03 mg/L, Day 3 (after 3 days at 21° C.)
# [16] = 0.1 mg/L, Day 0 (after 3 days at 21° C.)
# [17] = 0.1 mg/L, Day 1 (after 3 days at 21° C.)
# [18] = 0.1 mg/L, Day 2 (after 3 days at 21° C.)
# [19] = 0.1 mg/L, Day 3 (after 3 days at 21° C.)
# [20] = 0.3 mg/L, Day 0 (after 3 days at 21° C.)
# [21] = 0.3 mg/L, Day 1 (after 3 days at 21° C.)
# [22] = 0.3 mg/L, Day 2 (after 3 days at 21° C.)
# [23] = 0.3 mg/L, Day 3 (after 3 days at 21° C.)
# [24] = 1 mg/L, Day 0 (after 3 days at 21° C.)
# [25] = 1 mg/L, Day 1 (after 3 days at 21° C.)
# [26] = 1 mg/L, Day 2 (after 3 days at 21° C.)
# [27] = 1 mg/L, Day 3 (after 3 days at 21° C.)
# [28] = 0.04 mg/L, Day 0 (after 3 days at 21° C.)
# [29] = 0.04 mg/L, Day 1 (after 3 days at 21° C.)
# [30] = 0.04 mg/L, Day 2 (after 3 days at 21° C.)
# [31] = 0.04 mg/L, Day 3 (after 3 days at 21° C.)
# [32] = 0.2 mg/L, Day 0 (after 3 days at 21° C.)
# [33] = 0.2 mg/L, Day 1 (after 3 days at 21° C.)
# [34] = 0.2 mg/L, Day 2 (after 3 days at 21° C.)
# [35] = 0.2 mg/L, Day 3 (after 3 days at 21° C.)
compound,measurement,setting,value
"Cc1cc(C)nc(Nc2ccccc2)n1 [pyrimethanil, 4,6-Dimethyl-N-phenylpyrimidin-2-amine]",Mycelial Growth Inhibition (%),[1]; 0.1 mg/L headspace,58.3%
same,Mycelial Growth Inhibition (%),[1]; 0.3 mg/L headspace,89.4%
same,Mycelial Growth Inhibition (%),[1]; 1 mg/L headspace,92.2%
same,Mycelial Growth Inhibition (%),[2]; 0.1 mg/L headspace,100.0%
same,Mycelial Growth Inhibition (%),[2]; 0.3 mg/L headspace,100.0%
same,Mycelial Growth Inhibition (%),[2]; 1 mg/L headspace,100.0%
same,Mycelial Growth Inhibition (%),[3]; 0.1 mg/L headspace,100.0%
same,Mycelial Growth Inhibition (%),[3]; 0.3 mg/L headspace,90.0%
same,Mycelial Growth Inhibition (%),[3]; 1 mg/L headspace,89.7%
same,Mycelial Growth Inhibition (%),[4]; 0.1 mg/L headspace,91.9%
same,Mycelial Growth Inhibition (%),[4]; 0.3 mg/L headspace,92.1%
same,Mycelial Growth Inhibition (%),[4]; 1 mg/L headspace,95.2%
same,Mycelial Growth Inhibition (%),[5]; 0.1 mg/L headspace,31.5%
same,Mycelial Growth Inhibition (%),[5]; 0.3 mg/L headspace,62.1%
same,Mycelial Growth Inhibition (%),[5]; 1 mg/L headspace,77.3%
same,Mycelial Growth Inhibition (%),[6]; 0.1 mg/L headspace,100.0%
same,Mycelial Growth Inhibition (%),[6]; 0.3 mg/L headspace,100.0%
same,Mycelial Growth Inhibition (%),[6]; 1 mg/L headspace,100.0%
same,Mycelial Growth Inhibition (%),[7]; 0.1 mg/L headspace,92.4%
same,Mycelial Growth Inhibition (%),[7]; 0.3 mg/L headspace,100.0%
same,Mycelial Growth Inhibition (%),[7]; 1 mg/L headspace,100.0%
same,Mycelial Growth Inhibition (%),[8]; 0.1 mg/L headspace,57.8%
same,Mycelial Growth Inhibition (%),[8]; 0.3 mg/L headspace,73.1%
same,Mycelial Growth Inhibition (%),[8]; 1 mg/L headspace,75.2%
same,"browning at the bottom of the fruit, vaporized compared with fogged",[9],much less area (mm) of browning
same,"browning on the top of the fruit, vaporized compared with fogged",[9],comparable browning
same,Gray Mold Incidence (%),[10]; [12],79.2%
same,Gray Mold Severity (0-4),[10]; [12],0.8
same,Gray Mold Incidence (%),[10]; [13],87.5%
same,Gray Mold Severity (0-4),[10]; [13],1.3
same,Gray Mold Incidence (%),[10]; [14],91.7%
same,Gray Mold Severity (0-4),[10]; [14],1.7
same,Gray Mold Incidence (%),[10]; [15],100.0%
same,Gray Mold Severity (0-4),[10]; [15],2.1
same,Gray Mold Incidence (%),[10]; [16],70.8%
same,Gray Mold Severity (0-4),[10]; [16],0.6
same,Gray Mold Incidence (%),[10]; [17],79.2%
same,Gray Mold Severity (0-4),[10]; [17],0.8
same,Gray Mold Incidence (%),[10]; [18],83.3%
same,Gray Mold Severity (0-4),[10]; [18],1.2
same,Gray Mold Incidence (%),[10]; [19],100.0%
same,Gray Mold Severity (0-4),[10]; [19],1.7
same,Gray Mold Incidence (%),[10]; [20],66.7%
same,Gray Mold Severity (0-4),[10]; [20],0.4
same,Gray Mold Incidence (%),[10]; [21],75.0%
same,Gray Mold Severity (0-4),[10]; [21],0.5
same,Gray Mold Incidence (%),[10]; [22],73.8%
same,Gray Mold Severity (0-4),[10]; [22],0.8
same,Gray Mold Incidence (%),[10]; [23],95.8%
same,Gray Mold Severity (0-4),[10]; [23],1.1
same,Gray Mold Incidence (%),[10]; [24],66.7%
same,Gray Mold Severity (0-4),[10]; [24],0.3
same,Gray Mold Incidence (%),[10]; [25],70.8%
same,Gray Mold Severity (0-4),[10]; [25],0.4
same,Gray Mold Incidence (%),[10]; [26],69.6%
same,Gray Mold Severity (0-4),[10]; [26],0.6
same,Gray Mold Incidence (%),[10]; [27],91.7%
same,Gray Mold Severity (0-4),[10]; [27],1.0
same,Browning (mm),[11]; [28],10.6 mm
same,Fungal Sporulation (mm),[11]; [28],2.6 mm
same,Browning (mm),[11]; [29],16.2 mm
same,Fungal Sporulation (mm),[11]; [29],2.1 mm
same,Browning (mm),[11]; [30],23.1 mm
same,Fungal Sporulation (mm),[11]; [30],2.8 mm
same,Browning (mm),[11]; [31],28.8 mm
same,Fungal Sporulation (mm),[11]; [31],3.1 mm
same,Browning (mm),[11]; [32],5.3 mm
same,Fungal Sporulation (mm),[11]; [32],0.3 mm
same,Browning (mm),[11]; [33],8.1 mm
same,Fungal Sporulation (mm),[11]; [33],0.8 mm
same,Browning (mm),[11]; [34],12.7 mm
same,Fungal Sporulation (mm),[11]; [34],1.4 mm
same,Browning (mm),[11]; [35],16.2 mm
same,Fungal Sporulation (mm),[11]; [35],2.6 mm
same,Browning (mm),[11]; [24],3.4 mm
same,Fungal Sporulation (mm),[11]; [24],0.1 mm
same,Browning (mm),[11]; [25],5.6 mm
same,Fungal Sporulation (mm),[11]; [25],0.7 mm
same,Browning (mm),[11]; [26],8.8 mm
same,Fungal Sporulation (mm),[11]; [26],0.8 mm
same,Browning (mm),[11]; [27],11.4 mm
same,Fungal Sporulation (mm),[11]; [27],1.6 mm

# — patent US10021881B2, “Vaporized administration of pesticides” (priority 2016, dated 2018)
